For orientation: pIC50 means −log10 of the IC50, conventionally taken in molar units.

pIC50: −log10 of the molar value. Values joined by “and” are separate entries in the source; they are usually repeats but may differ in a detail not shown here. Equal entries are not always repeated.

This passage reports IC50 results from ChEMBL document CHEMBL5604062, “ASAP - ZIKV NS2B-NS3 protease fluorescence dose response” (2024).

In this test the target is Nonstructural protein 3 (Zika virus, UniProt A0A024AXB9). Put plainly: Functional biochemical assay to identify treatments for viral infectious disease that targets Zika NS2B-NS3 protease. Utilizing a direct enzyme activity measurement method, reading the fluorescence intensity is used to characterize the relative potency of inhibitors as IC50. Also on record: species or system PRVABC59.
Sequence of Nonstructural protein 3 (A0A024AXB9 whole entry): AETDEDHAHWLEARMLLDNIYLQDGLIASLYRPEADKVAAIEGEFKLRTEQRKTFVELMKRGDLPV
Compound `COc1cc(Br)cc2c1NC(=O)[C@]2(Nc1ccc2c(c1)CNC2)C(N)=O` had a pIC50 of 4.70.

`O=C(Nc1ccc2c(c1)CNC2)c1cccc(-c2cnco2)c1` gave a pIC50 of 5.74.

Take `COCCOc1ccc(Cl)cc1C(=O)Nc1ccc2c(c1)CNC2`: the pIC50 is 5.51.

`Cc1ccc(S(=O)(=O)CNC(=O)[C@H](Nc2ccc3c(c2)CNC3)c2cc(Cl)cc3[nH]ncc23)cc1` gave a pIC50 of 6.13. Against the preceding compound, the pIC50 is 0.62 log units higher.

As to `O=C(NCc1ccc2c(c1)CCNC2)c1cc(Cl)cc2[nH]ncc12`, the pIC50 is 4.63. Against the preceding compound, the pIC50 is 1.50 log units lower.

For the compound `N#CCCNC(=O)[C@H](Nc1ccc2c(c1)CNC2)c1cc(Cl)cc(C2CC2)c1`, the pIC50 is 7.28 and 7.43.

As to `Cc1nc2cc(Cl)ccc2cc1C(=O)Nc1ccc2c(c1)CNC2`, the pIC50 was less than 4.60.

`C[C@H]1C[C@H](c2cccc(CN)c2)[C@@H](c2cc(Cl)cc(NC(=O)OCc3ccccc3)c2)C1` gave a negative logarithm of the IC50 (pIC50) of 4.82.

On to `CNC(=O)[C@H](Nc1ccc2c(c1)CNC2)c1cc(Cl)cc(C2CC2)c1`, for which the pIC50 is 7.26 and 7.38.

In turn, `O=C(Nc1ccc2c(c1)CNC2)c1cc(Cl)ccc1SC1CCCC1` showed a pIC50 of 6.07.

Regarding `O=C(Nc1ccc2c(c1)CNC2)C1(c2ccc(Cl)cc2)CCCC1`, the negative-log IC50 (pIC50) is less than 4.60.

In turn, `O=C1Cc2c(cccc2C(=O)Nc2ccc3c(c2)C(=O)OC3)N1` gave a pIC50 of less than 4.60.

`Cc1c(C(=O)Nc2cc3c(cn2)OCC3)cc(C2CC2)n1C` gave a pIC50 of less than 4.60.

In turn, `CC(C)COc1ccc(Cl)cc1C(=O)Nc1ccc2c(c1)CNC2` gave a pIC50 of 5.64.

`CC(C)(C)O[C@H]1CCCN(C(=O)Nc2ccc3c(c2)CNC3)C1` showed a pIC50 of less than 4.60.

Regarding `CC1(C)CN(C(=O)Nc2ccc3c(c2)CNC3)CC(F)(F)C1`, the pIC50 was less than 4.60.

With `CNC(=O)[C@]1(Nc2ccc3c(c2)CNC3)C(=O)Nc2ccc(Cl)cc21`, the pIC50 is less than 4.60.

Take `Cc1ccc2cc(Cl)cc(C(=O)Nc3ccc4c(c3)CNC4)c2n1`: the pIC50 was 6.06.

In the case of `Cn1cc(CCc2nc3c(C(=O)Nc4ccc5c(c4)CNC5)cc(Cl)cc3[nH]2)cn1`, the pIC50 was 6.81.

In the case of `N#C[C@H](Nc1ccc2c(c1)CNC2)c1ccnc(C(F)(F)F)c1`, the pIC50 was less than 4.60.

As to `C#Cc1ccnc(NC(=O)c2cc(C3CC3)n(C)c2C)c1`, the pIC50 was less than 4.60.

The compound `O=C(Nc1ccc2c(c1)CNC2)N1CCC[C@](O)(c2ccccc2)C1` showed a pIC50 of less than 4.60.

With `O=C(Nc1ccc2c(c1)CNC2)N1CCC[C@H](CC2CCC2)C1`, the pIC50 is less than 4.60.

The compound `O=C1CCN(c2cc(Cl)cc(C(=O)Nc3ccc4c(c3)CNC4)c2)C(=O)N1` showed a pIC50 of 5.91.

For `CCN(CC)C[C@H]1CCCN(C(=O)Nc2ccc3c(c2)CNC3)C1`, the negative logarithm of the IC50 (pIC50) is less than 4.60.

In the case of `Cn1ncc2c(C(=O)Nc3ccc4c(c3)CNC4)cc(C3CC3)nc21`, the pIC50 was 5.29.

`COc1ccc(CN2Cc3cc(NC(=O)c4cc(Cl)cc5[nH]ncc45)cc(Br)c3C2)cc1` had a pIC50 of 5.00.

With `COCCc1ccnc(NC(=O)c2cc(C3CC3)n(C)c2C)c1`, the pIC50 was less than 4.60.

Turning to `O=C(Nc1ccc2c(c1)CNC2)N1C[C@H](C(F)F)C2(CC2)C1`, the pIC50 was 4.61.

Compound `CCCN1C(=O)[C@](Nc2ccc3c(c2)CNC3)(C(=O)NC)c2ccccc21` had a pIC50 of less than 4.60.

Take `O=C(Nc1ccc2c(c1)CNC2)c1cc(Cl)cc2ccncc12`: the pIC50 is 7.10 and 7.15.

Turning to `C[C@H]1CC2(CN1C(=O)Nc1ccc3c(c1)CNC3)CC(F)(F)C2`, the negative-log IC50 (pIC50) is less than 4.60.

Regarding `O=C(Nc1ccc2c(c1)CNC2)N1CC[C@H](CC(F)(F)F)C1`, the pIC50 was less than 4.60.

In turn, `CC(C)NC(=O)[C@H](Nc1ccc2c(c1)C(=O)OC2)c1cc(Cl)cc2[nH]ncc12` gave a negative-log IC50 (pIC50) of less than 4.60.

For the compound `O=C1Cc2c(cc(Br)cc2C(=O)Nc2ccc3c(c2)CNC3)N1`, the pIC50 is 7.68 and 7.70.

`CC1([C@H]2CCCN(C(=O)Nc3ccc4c(c3)CNC4)C2)CC1`: the pIC50 is less than 4.60.

Turning to `CCCN1C(=O)[C@](Nc2ccc3c(c2)CNC3)(C(=O)NC)c2cc(Cl)ccc21`, the pIC50 was less than 4.60.

Regarding `N#C[C@H](Nc1ccc2c(c1)CNC2)c1cc(Cl)cc2c1OCC2`, the pIC50 was 5.61.
